Measurements published in patent US8796256B2 (Janssen Pharmaceutica NV, priority 2010, dated 2014).

Target: T1, ERR1 (also known as ERR-α or ERR-1) (Homo sapiens, UniProt P11474)
T1 sequence (P11474 193-421 limits assumed): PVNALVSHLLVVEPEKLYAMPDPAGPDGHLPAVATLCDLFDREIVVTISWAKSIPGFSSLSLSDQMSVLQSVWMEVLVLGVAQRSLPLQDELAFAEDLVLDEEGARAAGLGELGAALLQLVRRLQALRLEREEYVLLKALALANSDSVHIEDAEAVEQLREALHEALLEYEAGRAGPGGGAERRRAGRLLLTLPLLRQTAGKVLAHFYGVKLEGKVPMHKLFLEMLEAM
Test: TR-FRET assay (disruption of co-activator peptide binding to ERR1 LBD)
Format: biochemical
Settings: 6 nM 6His-ERR1LBD, 6 nM GST-SRC-2 peptide; average of 3 independent experiments
Description: Time-Resolved Fluorescence Resonance Energy Transfer (TR-FRET) experiments were performed to examine the functional response of ERR1 (also known as ERR-α or ERR-1) ligands. The TR-FRET assay described herein relied on the conformation of ERR1 for binding to a co-activator peptide: when a test compound binds to ERR1 and alters its conformation, it can disrupt the binding of the co-activator peptide. The components of this homogeneous secondary assay included: the ^6His-tagged-ERR1LBD, a GST-labeled-hSRC2 co-activator polypeptide and a fluorescent donor/acceptor pair from CIS bio international htrf/bioassays (Bedford, Mass.) using both an α-GST Europium (Eu) Cryptate label and an α^6His-XL665 (allophycocyanin) fluorophore.
For TR-FRET measurements, the reaction was buffered in 25 mM Tris pH 8, 2.5 mM Hepes, 20 mM KCl, 1 mM DTT, and 0.05 mg/mL BSA (delipidated). The final concentrations of reagents were 6 nM of ERR1LBD, 6 nM GST-SRC-2 peptide, 30 nM Eu cryptate, and 7.5 nM a^6His-XL665. Reactions were allowed to reach equilibrium at 25° C. for 4-18 h before collecting data on the Analyst from LJL Biosystems (Molecular Devices Sunnyvale, Calif.). […] Dose response curves were fitted using a hyperbolic equation and the data reported is the average of 3 independent experiments.

SMILES	EC50 [nM]
COc1ccc(Cn2ncc3cc(/C=C4\SC(=O)N(CCCN(C)C)C4=O)ccc32)c(C(F)(F)F)c1 [Compound 10, (5Z)-3-[3-(Dimethylamino)propyl]-5-[(1-{[4-(methyloxy)-2-(trifluoromethyl)phenyl]-methyl}-1H-indazol-5-yl)methylidene]-1,3-thiazolidine-2,4-dione]	8
COc1ccc(Cn2ncc3cc(/C=C4\SC(=O)N(CCN5CCCCC5)C4=O)ccc32)c(C(F)(F)F)c1 [Compound 11, (5Z)-5-[(1-{[4-(Methyloxy)-2-(trifluoromethyl)phenyl]methyl}-1H-indazol-5-yl)methylidene]-3-(2-piperidin-1-ylethyl)-1,3-thiazolidine-2,4-dione]	27
COc1ccc(Cn2ncc3cc(/C=C4\SC(=O)N(CCN5CCN(C)CC5)C4=O)ccc32)c(C(F)(F)F)c1 [Compound 12, (5Z)-5-[(1-{[4-(Methyloxy)-2-(trifluoromethyl)phenyl]methyl}-1H-indazol-5-yl)methylidene]-3-[2-(4-methylpiperazin-1-yl)ethyl]-1,3-thiazolidine-2,4-dione]	72
COc1ccc(Cn2ncc3cc(/C=C4\SC(=O)N(CCN5CC[C@@H](F)C5)C4=O)ccc32)c(C(F)(F)F)c1 [Compound 13, (5Z)-3-{2-[(3R)-3-Fluoropyrrolidin-1-yl]ethyl}-5-[(1-{[4-(methyloxy)-2-(trifluoromethyl)phenyl]methyl}-1H-indazol-5-yl)methylidene]-1,3-thiazolidine-2,4-dione]	43
COc1ccc(Cn2ncc3cc(/C=C4\SC(=O)N(CCN5CC[C@H](O)C5)C4=O)ccc32)c(C(F)(F)F)c1 [Compound 14, (5Z)-3-{2-[(3S)-3-Hydroxypyrrolidin-1-yl]ethyl}-5-({1-[4-methoxy-2-(trifluoromethyl)benzyl]-1H-indazol-5-yl}methylidene)-1,3-thiazolidine-2,4-dione]	100
COc1ccc(Cn2ncc3cc(/C=C4\SC(=O)N(CCN5CCC(O)CC5)C4=O)ccc32)c(C(F)(F)F)c1 [Compound 15, (5Z)-3-[2-(4-Hydroxypiperidin-1-yl)ethyl]-5-({1-[4-methoxy-2-(trifluoromethyl)benzyl]-1H-indazol-5-yl}methylidene)-1,3-thiazolidine-2,4-dione]	62
COc1ccc(Cn2ncc3cc(/C=C4\SC(=O)N(CCN5CCN(CCO)CC5)C4=O)ccc32)c(C(F)(F)F)c1 [Compound 16, (5Z)-3-{2-[4-(2-Hydroxyethyl)piperazin-1-yl]ethyl}-5-({1-[4-methoxy-2-(trifluoromethyl)benzyl]-1H-indazol-5-yl)methylidene)-1,3-thiazolidine-2,4-dione]	71
COc1ccc(Cn2ncc3cc(/C=C4\SC(=O)N(CCN5CCCC5)C4=O)ccc32)c(C(F)(F)F)c1 [Compound 17, (5Z)-5-({1-[4-Methoxy-2-(trifluoromethyl)benzyl]-1H-indazol-5-yl}methylidene)-3-(2-pyrrolidin-1-ylethyl)-1,3-thiazolidine-2,4-dione]	46
CCN(CC)CCN1C(=O)S/C(=C\c2ccc3c(cnn3Cc3ccc(OC)cc3C(F)(F)F)c2)C1=O [Compound 18, (5Z)-3-[2-(Diethylamino)ethyl]-5-({1-[4-methoxy-2-(trifluoromethyl)benzyl]-1H-indazol-5-yl}methylidene)-1,3-thiazolidine-2,4-dione]	20
COc1ccc(Cn2nc(C)c3cc(/C=C4\SC(=O)N(CCN5CCOCC5)C4=O)ccc32)c(C(F)(F)F)c1 [Compound 20, (5Z)-5-({1-[4-Methoxy-2-(trifluoromethyl)benzyl]-3-methyl-1H-indazol-5-yl}methylidene)-3-(2-morpholin-4-ylethyl)-1,3-thiazolidine-2,4-dione]	14
COc1ccc(Cn2ncc3cc(/C=C4\SC(=O)N(CCN5C[C@@H](C)O[C@@H](C)C5)C4=O)ccc32)c(C(F)(F)F)c1 [Compound 21, (5Z)-3-{2-[cis-2,6-Dimethylmorpholin-4-yl]ethyl}-5-({1-[4-methoxy-2-(trifluoromethyl)benzyl]-1H-indazol-5-yl)methylidene)-1,3-thiazolidine-2,4-dione]	9
COc1ccc(Cn2ncc3cc(/C=C4\SC(=O)N(C[C@@H]5CCCN5C)C4=O)ccc32)c(C(F)(F)F)c1 [Compound 23, (5Z)-5-({1-[4-Methoxy-2-(trifluoromethyl)benzyl]-1H-indazol-5-yl}methylidene)-3-{[(2S)-1-methylpyrrolidin-2-yl]methyl}-1,3-thiazolidine-2,4-dione]	45
COc1ccc(Cn2ncc3cc(/C=C4\SC(=O)N(C5CCC(C(=O)NS(C)(=O)=O)CC5)C4=O)ccc32)c(C(F)(F)F)c1 (stereo not drawn) [Compound 24, 4-[(5Z)-5-({1-[4-Methoxy-2-(trifluoromethyl)benzyl]-1H-indazol-5-yl}methylidene)-2,4-dioxo-1,3-thiazolidin-3-yl]-N-(methylsulfonyl) cyclohexanecarboxamide]	12
COc1ccc(Cn2nc(OC)c3cc(/C=C4\SC(=O)N(CCN5CCOCC5)C4=O)ccc32)c(C(F)(F)F)c1 [Compound 25, (5Z)-5-({3-Methoxy-1-[4-methoxy-2-(trifluoromethyl)benzyl]-1H-indazol-5-yl}methylidene)-3-(2-morpholin-4-ylethyl)-1,3-thiazolidine-2,4-dione]	16
COc1ccc(Cn2ncc3cc(/C=C4\SC(=O)N(C5CCNCC5)C4=O)ccc32)c(C(F)(F)F)c1 [Compound 26, (5Z)-5-({1-[4-Methoxy-2-(trifluoromethyl)benzyl]-1H-indazol-5-yl}methylidene)-3-piperidin-4-yl-1,3-thiazolidine-2,4-dione]	67
CCN1CCC(N2C(=O)S/C(=C\c3ccc4c(cnn4Cc4ccc(OC)cc4C(F)(F)F)c3)C2=O)CC1 [Compound 28, (5Z)-3-(1-Ethylpiperidin-4-yl)-5-({1-[4-methoxy-2-(trifluoromethyl)benzyl]-1H-indazol-5-yl}methylidene)-1,3-thiazolidine-2,4-dione]	14
COc1nn(Cc2ccc(Cl)cc2C(F)(F)F)c2ccc(/C=C3\SC(=O)N(C4CCNCC4)C3=O)cc12 [Compound 29, (5Z)-5-({1-[4-Chloro-2-(trifluoromethyl)benzyl]-3-methoxy-1H-indazol-5-yl}methylidene)-3-piperidin-4-yl-1,3-thiazolidine-2,4-dione]	95
CCN1CCC(N2C(=O)S/C(=C\c3ccc4c(c3)c(OC)nn4Cc3ccc(Cl)cc3C(F)(F)F)C2=O)CC1 [Compound 30, (5Z)-5-({1-[4-Chloro-2-(trifluoromethyl)benzyl]-3-methoxy-1H-indazol-5-yl}methylidene)-3-(1-ethylpiperidin-4-yl)-1,3-thiazolidine-2,4-dione]	96
COc1ccc(Cn2ncc3cc(/C=C4\SC(=O)N(C5CCN(S(N)(=O)=O)CC5)C4=O)ccc32)c(C(F)(F)F)c1 [Compound 32, 4-[(5Z)-5-({1-[4-Methoxy-2-(trifluoromethyl)benzyl]-1H-indazol-5-yl}methylidene)-2,4-dioxo-1,3-thiazolidin-3-yl]piperidine-1-sulfonamide]	15
CCOc1nn(Cc2ccc(Cl)cc2C(F)(F)F)c2ccc(/C=C3\SC(=O)N(CCN4CCCC4)C3=O)cc12 [Compound 33, (5Z)-5-({1-[4-Chloro-2-(trifluoromethyl)benzyl]-3-ethoxy-1H-indazol-5-yl}methylidene)-3-(2-pyrrolidin-1-ylethyl)-1,3-thiazolidine-2,4-dione]	185
NS(=O)(=O)N1CCC(N2C(=O)S/C(=C\c3ccc4c(cnn4Cc4ccc(Cl)cc4C(F)(F)F)c3)C2=O)CC1 [Compound 34, 4-[(5Z)-5-({1-[4-Chloro-2-(trifluoromethyl)benzyl]-1H-indazol-5-yl}methylidene)-2,4-dioxo-1,3-thiazolidin-3-yl]piperidine-1-sulfonamide]	23
O=C1S/C(=C\c2ccc3c(c2)c(O)nn3Cc2ccc(Cl)cc2C(F)(F)F)C(=O)N1CCN1CCCC1 [Compound 37, (5Z)-5-({1-[4-Chloro-2-(trifluoromethyl)benzyl]-3-oxo-2,3-dihydro-1H-indazol-5-yl}methylidene)-3-(2-pyrrolidin-1-ylethyl)-1,3-thiazolidine-2,4-dione]	290
Cc1nn(Cc2ccc(Cl)cc2C(F)(F)F)c2ccc(/C=C3\SC(=O)N(CC(=O)NS(=O)(=O)N(C)C)C3=O)cc12 [Compound 39, 2-[(5Z)-5-({1-[4-Chloro-2-(trifluoromethyl)benzyl]-3-methyl-1H-indazol-5-yl}methylidene)-2,4-dioxo-1,3-thiazolidin-3-yl]-N-(dimethylsulfamoyl)acetamide]	43
Cc1nn(Cc2ccc(Cl)cc2C(F)(F)F)c2ccc(/C=C3\SC(=O)N(CCN4CCCC4)C3=O)cc12 [Compound 41, (5Z)-5-({1-[4-Chloro-2-(trifluoromethyl)benzyl]-3-methyl-1H-indazol-5-yl}methylidene)-3-(2-pyrrolidin-1-ylethyl)-1,3-thiazolidine-2,4-dione]	9
